# Columns and labels:
# Details in all cases: 5 uM vitamin K epoxide in medium; HEK293 VKORC1/VKORL1 knockout
# S3-TM5/Trx = assay: cell-based gamma-carboxylation reporter; parameters: species or system Synechococcus sp. JA-2-3B'a(2-13)
# M2 = tested on: M2
# M1 = tested on: M1
# S3 = assay: cell-based gamma-carboxylation reporter; parameters: species or system Synechococcus sp. JA-2-3B'a(2-13)
compound,measurement,setting,value
CC(=O)CC(c1ccccc1)c1c(O)c2ccccc2oc1=O (stereo not shown) [warfarin],IC50,S3-TM5/Trx,1110 nM
same,IC50,M2,1870 nM
same,IC50,M1,400 nM
same,IC50,S3,190 nM
